Results taken from patent US20210100788A1, “PALONOSETRON FORMULATIONS AND USES THEREOF” (LUXENA PHARMACEUTICALS, INC., priority 2014, published 2021).
Structures can show the parent of a compound that is named as a salt.

Assay: Particle size distribution of jet milled palonosetron fine powder by HELOS Particle Size Analyzer
Type: physicochemical
Method: Palonosetron HCl was milled with a 2-in pancake Jet Mill and flexible containment. The process air was nitrogen. The jet milling was conducted at Catalent Micron Technologies, Malvern, Pa., USA.
The particle size distribution of the palonosetron fine powder, prepared by jet milling, was measured by HELOS Particle Size Analyzer (Sympatec GmbH, Germany) at Micron Technologies, Inc., Malvern, Pa., USA.
The Particle Size Distribution parameters are: • D10: 0.68 μm • D50: 1.39 μm • D90: 2.89 μm • D95: 3.68 μm • D99.5: 6.92 μm • Cumulative % <9 μm: 100%

Cumulative % <9 μm: 100%
D10: 0.68 μm
D50: 1.39 μm
D90: 2.89 μm
D95: 3.68 μm
D99.5: 6.92 μm
SMILES: O=C1c2cccc3c2[C@H](CCC3)CN1[C@@H]1CN2CCC1CC2 [Jet Milled Palonosetron Fine Powder, Palonosetron HCl]
